We go through 20 compounds from PubChem BioAssay AID330 (DTP/NCI, 2004).

The test system of the test is P388 leukemia ip, CD2F1 mice, survival T/C. The test can be described thus: NCI In Vivo Anticancer Drug Screen. Data for tumor model P388 Leukemia (intraperitoneal) in CD2F1 (CDF1) mice. Particulars: endpoint: median survival time, higher = longer survival. In outline: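 Mice carrying the transplanted tumor received test compound or vehicle. Survival was recorded in each group, and the value is the treated-group measurement divided by that of the vehicle-treated control group.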

Setting [1] is: dose: 60.0 mg/kg/injection, schedule: Q01DX005 (ip), vehicle: saline.
[2] abbreviates: dose: 120.0 mg/kg/injection, schedule: Q01DX005 (ip), vehicle: saline.
Setting [3] is: dose: 240.0 mg/kg/injection, schedule: Q01DX005 (ip), vehicle: saline.
Setting [4] is: dose: 50.0 mg/kg/injection, schedule: Q01DX009 (ip), vehicle: saline.
Where [5] appears, read: dose: 50.0 mg/kg/injection, schedule: Q01DX005 (ip), vehicle: Klucel (hydroxypropylcellulose) (HPC).
Setting [6] is: dose: 100.0 mg/kg/injection, schedule: Q01DX005 (ip), vehicle: Klucel (hydroxypropylcellulose) (HPC).
Setting [7] is: dose: 200.0 mg/kg/injection, schedule: Q01DX005 (ip), vehicle: Klucel (hydroxypropylcellulose) (HPC).
Setting [8] is: dose: 15.0 mg/kg/injection, schedule: Q01DX005 (ip), vehicle: Klucel (hydroxypropylcellulose) (HPC).
[9] abbreviates: dose: 30.0 mg/kg/injection, schedule: Q01DX005 (ip), vehicle: Klucel (hydroxypropylcellulose) (HPC).
The mark [10] stands for this setting: dose: 60.0 mg/kg/injection, schedule: Q01DX005 (ip), vehicle: Klucel (hydroxypropylcellulose) (HPC).

Several values for one entry are separate records, joined by “and”; a condition that tells them apart may be missing. Identical values can stand only once. Inconclusive results and toxic doses are left out.

Consider `CCc1nc(N)nc(-c2nc(N)nc(CC)c2C)c1C`, for which the T/C is 106 % of control under setting [1], 104 % of control under setting [2] and 108 % of control under setting [3].

On to `CCCC(=O)C(CC)C(O)(C(F)(F)F)C(F)(F)F` (stereo unspecified), for which the T/C reads like this: under setting [4], 104 % of control; (dose: 100.0 mg/kg/injection, schedule: Q01DX009 (ip), vehicle: saline) 104 % of control; (dose: 200.0 mg/kg/injection, schedule: Q01DX009 (ip), vehicle: saline) 109 % of control.

Take `O=NNc1ccc([N+](=O)[O-])cc1`: the T/C was 102 % of control (dose: 3.12 mg/kg/injection, schedule: Q01DX009 (ip), vehicle: water); 112 % of control and 121 % of control (dose: 6.25 mg/kg/injection, schedule: Q01DX009 (ip), vehicle: water); 152 % of control (dose: 25.0 mg/kg/injection, schedule: Q01DX009 (ip), vehicle: water); 159 % of control (dose: 50.0 mg/kg/injection, schedule: Q01DX009 (ip), vehicle: water).

As to `C=C(NC(=O)C(=C)NC(=O)c1csc(C2=NC3c4csc(n4)C4NC(=O)c5csc(n5)C(C(C)(O)C(C)O)NC(=O)C5CSC(=N5)/C(=C/C)NC(=O)C(C(C)O)NC(=O)c5csc(n5)C3(CC2)NC(=O)C(C)NC(=O)C(=C)NC(=O)C(=C)NC(=O)C(C(C)C)NC2C=Cc3c(C(C)O)cc(nc3C2O)C(=O)OC4C)n1)C(N)=O` (stereo unspecified), under setting [4], the T/C is 150 % of control.

Turning to `O=[N+]([O-])c1ccccc1Sc1cccc(Sc2ccccc2[N+](=O)[O-])n1`, the T/C is, setting by setting: (dose: 60.0 mg/kg/injection, schedule: Q01DX005 (ip), vehicle: saline with Tween-80) 100 % of control; (dose: 120.0 mg/kg/injection, schedule: Q01DX005 (ip), vehicle: saline with Tween-80) 105 % of control; (dose: 240.0 mg/kg/injection, schedule: Q01DX005 (ip), vehicle: saline with Tween-80) 102 % of control.

In the case of `CN(CCCCN(C)CCOS(C)(=O)=O)CCOS(C)(=O)=O`, the T/C was 157 % of control (dose: 0.05 mg/kg/injection, schedule: Q01DX009 (ip), vehicle: saline); 178 % of control (dose: 0.1 mg/kg/injection, schedule: Q01DX009 (ip), vehicle: saline); 156 % of control (dose: 0.3 mg/kg/injection, schedule: Q01DX009 (ip), vehicle: saline); 156 % of control (dose: 0.6 mg/kg/injection, schedule: Q01DX009 (ip), vehicle: saline); 168 % of control (dose: 0.8 mg/kg/injection, schedule: Q04DX003 (ip), vehicle: saline); 172 % of control (dose: 1.2 mg/kg/injection, schedule: Q04DX003 (ip), vehicle: saline). Moreover, the T/C runs as follows: (dose: 1.25 mg/kg/injection, schedule: Q01DX009 (ip), vehicle: saline) 230 % of control; (dose: 1.25 mg/kg/injection, schedule: Q04DX003 (ip), vehicle: saline with Tween-80) 180 % of control; (dose: 1.8 mg/kg/injection, schedule: Q04DX003 (ip), vehicle: saline) 181 % of control; (dose: 2.5 mg/kg/injection, schedule: Q04DX003 (ip), vehicle: saline with Tween-80) 176 % of control; (dose: 5.0 mg/kg/injection, schedule: Q04DX003 (ip), vehicle: saline with Tween-80) 200 % of control; (dose: 5.0 mg/kg/injection, schedule: Q04DX003 (ip), vehicle: saline) 204 % of control. Besides, where the note is “dose: 10.0 mg/kg/injection, schedule: Q04DX003 (ip), vehicle: saline”, the T/C is 86 % of control.

As for `COc1ccc2cc3[n+](c(CC(=O)O)c2c1OC)CCc1cc2c(cc1-3)OCO2`, the T/C is 101 % of control (dose: 0.63 mg/kg/injection, schedule: Q01DX009 (ip), vehicle: water); 88 % of control (dose: 1.25 mg/kg/injection, schedule: Q01DX009 (ip), vehicle: water); 105 % of control (dose: 2.5 mg/kg/injection, schedule: Q01DX009 (ip), vehicle: water); 117 % of control (dose: 5.0 mg/kg/injection, schedule: Q01DX009 (ip), vehicle: water); 118 % of control (dose: 10.0 mg/kg/injection, schedule: Q01DX009 (ip), vehicle: water).

In the case of `CN1c2ccccc2SC12C(=S)N(c1ccccc1)C(=S)N2c1ccccc1` (stereo unspecified), the T/C (dose: 100.0 mg/kg/injection, schedule: Q04DX002 (ip), vehicle: saline with Tween-80) was 98 % of control; the T/C (dose: 200.0 mg/kg/injection, schedule: Q04DX002 (ip), vehicle: saline with Tween-80) was 90 % of control; the T/C (dose: 400.0 mg/kg/injection, schedule: Q04DX002 (ip), vehicle: saline with Tween-80) is 86 % of control.

Turning to `N#CCCn1ncc(C#N)c1N`, the T/C was 99 % of control under setting [5], 107 % of control under setting [6] and 90 % of control under setting [7].

Consider `NC(C/C=C\Cl)C(=O)O` (stereo unspecified), for which the T/C is 102 % of control under setting [5], 98 % of control under setting [6] and 110 % of control under setting [7].

Turning to `C/C=C1/C(=O)O[C@]23C=C[C@@H]4C(C(=O)OC)=CO[C@H](O[C@@H]12)[C@@H]43`, the T/C is, setting by setting: (dose: 1.25 mg/kg/injection, schedule: Q01DX009 (ip), vehicle: Klucel (hydroxypropylcellulose) (HPC)) 96 % of control; (dose: 2.5 mg/kg/injection, schedule: Q01DX009 (ip), vehicle: Klucel (hydroxypropylcellulose) (HPC)) 98 % of control; (dose: 5.0 mg/kg/injection, schedule: Q01DX009 (ip), vehicle: Klucel (hydroxypropylcellulose) (HPC)) 102 % of control; (dose: 10.0 mg/kg/injection, schedule: Q01DX009 (ip), vehicle: Klucel (hydroxypropylcellulose) (HPC)) 109 % of control.

Turning to `Cc1nc(N)nc2ccccc12`, the T/C runs as follows: under setting [8], 100 % of control; under setting [9], 100 % of control; under setting [10], 99 % of control.

Take `CC1(c2cccc[n+]2Cc2ccc(Cl)c3ccccc23)OCCO1`: the T/C was 101 % of control (dose: 12.5 mg/kg/injection, schedule: Q01DX009 (ip), vehicle: saline) and 101 % of control (dose: 25.0 mg/kg/injection, schedule: Q01DX009 (ip), vehicle: saline).

On to `CC1NNC(=O)C1(Br)Br` (stereo unspecified), for which the T/C reads like this: (dose: 6.25 mg/kg/injection, schedule: Q01DX009 (ip), vehicle: gum acacia) 100 % of control; (dose: 12.5 mg/kg/injection, schedule: Q01DX009 (ip), vehicle: gum acacia) 91 % of control.

Consider `NC(=S)N/N=C\c1nccc2c(C(F)(F)F)cccc12`, for which the T/C is, setting by setting: (dose: 1.5 mg/kg/injection, schedule: Q04DX003 (ip), vehicle: saline with Tween-80) 91 % of control; (dose: 3.0 mg/kg/injection, schedule: Q04DX003 (ip), vehicle: saline with Tween-80) 95 % of control; (dose: 6.0 mg/kg/injection, schedule: Q04DX003 (ip), vehicle: saline with Tween-80) 99 % of control; (dose: 12.0 mg/kg/injection, schedule: Q04DX003 (ip), vehicle: saline with Tween-80) 91 % of control.

As for `CCN(CC)Cc1c(C)[nH]c2c3c(ccc2c1=O)Oc1c(ccc2c(=O)c(CN(CC)CC)c(C)[nH]c12)O3`, the T/C reads like this: (dose: 50.0 mg/kg/injection, schedule: Q01DX009 (ip), vehicle: Klucel (hydroxypropylcellulose) (HPC)) 96 % of control; (dose: 100.0 mg/kg/injection, schedule: Q01DX009 (ip), vehicle: Klucel (hydroxypropylcellulose) (HPC)) 93 % of control; (dose: 200.0 mg/kg/injection, schedule: Q01DX009 (ip), vehicle: Klucel (hydroxypropylcellulose) (HPC)) 96 % of control.

For the compound `O=C1NC(=O)C2C3CCC(C12)C1C2C(=O)NC(=O)C2C31` (stereo unspecified), the T/C (dose: 12.5 mg/kg/injection, schedule: Q01DX005 (ip), vehicle: saline with Tween-80) is 91 % of control; the T/C (dose: 25.0 mg/kg/injection, schedule: Q01DX005 (ip), vehicle: saline with Tween-80) is 93 % of control; the T/C (dose: 50.0 mg/kg/injection, schedule: Q01DX005 (ip), vehicle: saline with Tween-80) is 101 % of control and 91 % of control.

For `O=C(O)C(O)C(O)C(O)C(O)c1nn[nH]n1` (stereo unspecified), the T/C is 101 % of control (dose: 100.0 mg/kg/injection, schedule: Q01DX001 (ip), vehicle: saline); 98 % of control (dose: 200.0 mg/kg/injection, schedule: Q01DX001 (ip), vehicle: saline); 93 % of control (dose: 400.0 mg/kg/injection, schedule: Q01DX001 (ip), vehicle: saline).

As to `CCOC(CC#CC(=O)N(C)C)OCC`, the T/C runs as follows: under setting [1], 100 % of control; under setting [2], 107 % of control; under setting [3], 101 % of control.

With `Cn1cc(N=P(c2ccccc2)(c2ccccc2)c2ccccc2)c(=O)n(C)c1=O`, the T/C is 114 % of control under setting [8], 105 % of control under setting [9] and 107 % of control under setting [10].
